Among the data in PubChem BioAssay (NCI) are TGI and GI50 values, retold here.

Test systems include HCT-15 colon; HOP-62 NSCLC; HT29 colon; IGROV1 ovarian; K-562 leukemia; MALME-3M melanoma; SF-539 CNS; SK-MEL-2 melanoma; 786-0 renal; ACHN renal; DU-145 prostate; M14 melanoma; MDA-MB-435; BT-549 breast.
Holding throughout (assay): growth of human tumour cells (NCI), 48 h

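Each compound was tested at five concentrations against cells in 96-well plates for 48 hours. At the GI50, growth is halved. TGI denotes the concentration required for complete inhibition of growth.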

Take `CC1(C)S[C@@H]2[C@H](NC(=O)CCC[C@@H](N)C(=O)O)C(=O)N2[C@H]1C(=O)O`: the TGI with HCT-15 colon, in the experiment with HOP-62 NSCLC, in the experiment with HT29 colon, in the experiment with IGROV1 ovarian, in the experiment on K-562 leukemia and in the experiment with MALME-3M melanoma was over 50 µM in each case. Also, the TGI in the experiment on SF-539 CNS and in the experiment with SK-MEL-2 melanoma was over 50 µM in each case.
For `CC(=O)N1NC(c2ccccc2)=CC(=O)/C1=C/C(=O)c1ccccc1`, the TGI with 786-0 renal, in the experiment with ACHN renal, in the experiment with DU-145 prostate, in the experiment on HCT-15 colon, with HOP-62 NSCLC and with HT29 colon was over 100 µM throughout. Besides, the TGI in the experiment on IGROV1 ovarian is over 100 µM; in the experiment with K-562 leukemia, over 100 µM; in the experiment on M14 melanoma it was over 100 µM; in the experiment with MALME-3M melanoma it was over 100 µM; in the experiment with MDA-MB-435, 43.1 µM; with SF-539 CNS it was over 100 µM. In addition, the TGI in the experiment on SK-MEL-2 melanoma was over 100 µM.
For `COC(=O)c1cc(C)ccc1/C=C1\Cc2cc(C)c(C)cc2C1=O`, the TGI with 786-0 renal, with ACHN renal, in the experiment on BT-549 breast, with DU-145 prostate, in the experiment on HCT-15 colon and in the experiment on HOP-62 NSCLC was over 100 µM throughout. Moreover, the TGI in the experiment on HT29 colon, in the experiment on IGROV1 ovarian, with K-562 leukemia, with M14 melanoma, with MALME-3M melanoma and in the experiment on SF-539 CNS was over 100 µM throughout. For the same molecule, in the experiment on SK-MEL-2 melanoma, the TGI was over 100 µM.
In the case of `O=C(Sc1c(-c2ccccc2)c(=O)n(-c2ccccc2)c(=S)n1-c1ccccc1)c1ccc(Cl)cc1`, the TGI in the experiment with 786-0 renal, in the experiment on ACHN renal, in the experiment with DU-145 prostate, in the experiment with HCT-15 colon, with HOP-62 NSCLC and in the experiment with HT29 colon was over 100 µM throughout. Besides, the TGI in the experiment with IGROV1 ovarian, in the experiment with K-562 leukemia, with M14 melanoma, in the experiment on MALME-3M melanoma, with MDA-MB-435 and with SF-539 CNS was over 100 µM in each case.
With `CCOC(=O)Cn1c(=O)c2nc(SC)sc2n(-c2ccc(C)cc2)c1=S`, the TGI was 49.1 µM in the experiment with 786-0 renal; over 100 µM in the experiment on ACHN renal; over 100 µM in the experiment on DU-145 prostate; over 100 µM in the experiment with HCT-15 colon; 42.5 µM with HOP-62 NSCLC; over 100 µM in the experiment on HT29 colon. The TGI with IGROV1 ovarian was over 100 µM; in the experiment on K-562 leukemia, over 100 µM; in the experiment on M14 melanoma it was over 100 µM; with MALME-3M melanoma, over 92 µM; in the experiment on MDA-MB-435, over 100 µM; with SF-539 CNS, over 75 µM. The TGI with SK-MEL-2 melanoma is 96.8 µM.
Regarding `COC(=O)/C=C\c1ccc2c(c1)CC1(C2)Cc2ccc(/C=C/C(=O)OC)cc2C1` (stereo not drawn), the TGI in the experiment with 786-0 renal was over 31.6 µM; in the experiment with ACHN renal, over 31.6 µM; with DU-145 prostate it was over 100 µM; in the experiment on HCT-15 colon, over 31.6 µM; in the experiment with HOP-62 NSCLC it was 25.3 µM; with HT29 colon, over 31.6 µM. Besides, the TGI in the experiment on IGROV1 ovarian, in the experiment with K-562 leukemia, with M14 melanoma, with MALME-3M melanoma, in the experiment on MDA-MB-435 and in the experiment on SF-539 CNS was over 31.6 µM each time.
For the molecule `COC(=O)c1cccc(NC(=O)Nc2ccc3oc(=O)c4ccccc4c3c2)c1`, the GI50 in the experiment with DU-145 prostate, in the experiment on HCT-15 colon, with HT29 colon, in the experiment on IGROV1 ovarian, with K-562 leukemia and in the experiment on M14 melanoma was over 100 µM each time. Also, the TGI in the experiment with DU-145 prostate, in the experiment on HCT-15 colon, with HT29 colon, in the experiment on IGROV1 ovarian, with K-562 leukemia and in the experiment on M14 melanoma was over 100 µM throughout.
Turning to `CS(=O)(=O)c1nc(N)nc2nc[nH]c12`, the TGI in the experiment with 786-0 renal, with ACHN renal, in the experiment with HCT-15 colon, in the experiment on HOP-62 NSCLC, with HT29 colon and in the experiment with IGROV1 ovarian was over 100 µM in each case. The TGI in the experiment with K-562 leukemia, in the experiment on M14 melanoma, in the experiment on SF-539 CNS and with SK-MEL-2 melanoma was over 100 µM in each case.
In the case of `CCCCOC(=O)CN1C(=O)c2ccccc2C1=O`, the TGI with ACHN renal, in the experiment with HCT-15 colon, in the experiment with HOP-62 NSCLC, with HT29 colon, with IGROV1 ovarian and in the experiment with M14 melanoma was over 100 µM throughout. The TGI in the experiment with MALME-3M melanoma, in the experiment on SF-539 CNS and in the experiment on SK-MEL-2 melanoma was over 100 µM throughout.
Consider `CC1(C)C(O)c2ccccc2OC1N1CCN(C2Oc3ccccc3C(O)C2(C)C)CC1` (stereo not drawn), for which the TGI in the experiment on 786-0 renal, with ACHN renal, in the experiment on DU-145 prostate, in the experiment on HCT-15 colon, with HOP-62 NSCLC and with HT29 colon was over 100 µM in each case. Also, the TGI in the experiment with IGROV1 ovarian, in the experiment on K-562 leukemia, in the experiment on M14 melanoma, in the experiment on MALME-3M melanoma, with MDA-MB-435 and with SF-539 CNS was over 100 µM throughout.
Turning to `O=C(O)C(Cc1cccs1)NC(=O)C(F)(F)F` (stereo not drawn), the TGI in the experiment with HCT-15 colon, in the experiment on HOP-62 NSCLC, in the experiment on HT29 colon, with IGROV1 ovarian, in the experiment on K-562 leukemia and in the experiment on MALME-3M melanoma was over 100 µM throughout. The TGI in the experiment on SF-539 CNS and in the experiment on SK-MEL-2 melanoma was over 100 µM each time.
Turning to `CC(C)[Si](OC12CCC(CC1O)CC2C(=O)O)(C(C)C)C(C)C` (stereo not drawn), the TGI in the experiment on 786-0 renal is 26.8 µM; with ACHN renal it was 29.1 µM; in the experiment with DU-145 prostate it was 33.7 µM; with HCT-15 colon it was 24.8 µM; in the experiment with HOP-62 NSCLC, 27.5 µM; in the experiment on HT29 colon it was 26.8 µM. Further, the TGI is over 100 µM in the experiment with K-562 leukemia; 29.3 µM in the experiment with M14 melanoma; 31.8 µM in the experiment with MDA-MB-435; over 100 µM in the experiment with SF-539 CNS; 27.7 µM in the experiment on SK-MEL-2 melanoma.
